Results: the NIST ThermoML archive (doi:10.1016/j.jct.2008.10.002)

Key:
[1] = molar heat capacity at constant pressure; xn = mol fraction of the nth substance listed; details: 101.3 kPa, Liquid, Small sample (50 mg) DSC
[2] = xn = mol fraction of the nth substance listed; details: 101.3 kPa, Liquid, Vibrating tube method
[3] = excess molar enthalpy (molar enthalpy of mixing); xn = mol fraction of the nth substance listed; details: 303.15 K, 101.3 kPa, Liquid

CCCCn1cc[n+](C)c1.O=S(=O)([O-])C(F)(F)F [1-butyl-3-methylimidazolium trifluoromethanesulfonate] + O
Details	mass density, [2] [kg/m3]	molar heat capacity at constant pressure, [1] [J/K/mol]
293.15 K, x1 = 0.0496	1119.8	98.5
293.15 K, x1 = 0.1012	1176.7	–
293.15 K, x1 = 0.1415	1202.8	131.9
293.15 K, x1 = 0.197	1227.4	–
293.15 K, x1 = 0.2965	1252.5	–
293.15 K, x1 = 0.3369	1259.7	200.1
293.15 K, x1 = 0.3873	1266.8	–
293.15 K, x1 = 0.4868	1277.3	250
293.15 K, x1 = 0.5637	1283.2	274.4
293.15 K, x1 = 0.6636	1289.1	307.4
293.15 K, x1 = 0.7124	1291.6	322.5
293.15 K, x1 = 0.796	1295.2	350.7
293.15 K, x1 = 0.9017	1298.8	387.2
293.15 K, x1 = 0.9456	1300.1	–
298.15 K, x1 = 0.0496	1116.9	98.7
298.15 K, x1 = 0.1012	1173.2	–
298.15 K, x1 = 0.1415	1199	132.6
298.15 K, x1 = 0.197	1223.4	–
298.15 K, x1 = 0.2965	1248.4	–
298.15 K, x1 = 0.3369	1255.6	201.3
298.15 K, x1 = 0.3873	1262.7	–
298.15 K, x1 = 0.4868	1273.2	251.5
298.15 K, x1 = 0.5637	1279.1	276.1
298.15 K, x1 = 0.6636	1285.1	309.4
298.15 K, x1 = 0.7124	1287.6	324.4
298.15 K, x1 = 0.796	1291.2	352.9
298.15 K, x1 = 0.9017	1294.8	389.4
298.15 K, x1 = 0.9456	1296.1	–
303.15 K, x1 = 0.0496	1113.8	98.9
303.15 K, x1 = 0.1012	1169.5	–
303.15 K, x1 = 0.1415	1195.1	133.3
303.15 K, x1 = 0.197	1219.3	–
303.15 K, x1 = 0.2965	1244.3	–
303.15 K, x1 = 0.3369	1251.5	202.7
303.15 K, x1 = 0.3873	1258.6	–
303.15 K, x1 = 0.4868	1269.1	253.2
303.15 K, x1 = 0.5637	1275.1	277.8
303.15 K, x1 = 0.6636	1281.1	311.5
303.15 K, x1 = 0.7124	1283.6	326.4
303.15 K, x1 = 0.796	1287.2	355.2
303.15 K, x1 = 0.9017	1290.9	391.8
303.15 K, x1 = 0.9456	1292.2	–
308.15 K, x1 = 0.0496	1110.6	99.1
308.15 K, x1 = 0.1012	1165.7	–
308.15 K, x1 = 0.1415	1191.2	134
308.15 K, x1 = 0.197	1215.3	–
308.15 K, x1 = 0.2965	1240.2	–
308.15 K, x1 = 0.3369	1247.4	204.1
308.15 K, x1 = 0.3873	1254.5	–
308.15 K, x1 = 0.4868	1265.1	254.9
308.15 K, x1 = 0.5637	1271	279.7
308.15 K, x1 = 0.6636	1277.1	313.7
308.15 K, x1 = 0.7124	1279.6	328.5
308.15 K, x1 = 0.796	1283.2	357.6
308.15 K, x1 = 0.9017	1286.9	394.4
308.15 K, x1 = 0.9456	1288.2	–
313.15 K, x1 = 0.0496	1107.3	99.4
313.15 K, x1 = 0.1012	1161.9	–
313.15 K, x1 = 0.1415	1187.1	134.8
313.15 K, x1 = 0.197	1211.2	–
313.15 K, x1 = 0.2965	1236	–
313.15 K, x1 = 0.3369	1243.3	205.5
313.15 K, x1 = 0.3873	1250.4	–
313.15 K, x1 = 0.4868	1261	256.7
313.15 K, x1 = 0.5637	1267	281.7
313.15 K, x1 = 0.6636	1273.1	316.1
313.15 K, x1 = 0.7124	1275.6	330.7
313.15 K, x1 = 0.796	1279.2	360.2
313.15 K, x1 = 0.9017	1283	397
313.15 K, x1 = 0.9456	1284.3	–
318.15 K, x1 = 0.0496	1103.9	99.7
318.15 K, x1 = 0.1012	1158	–
318.15 K, x1 = 0.1415	1183.1	135.7
318.15 K, x1 = 0.197	1207	–
318.15 K, x1 = 0.2965	1231.9	–
318.15 K, x1 = 0.3369	1239.1	207.1
318.15 K, x1 = 0.3873	1246.3	–
318.15 K, x1 = 0.4868	1256.9	258.7
318.15 K, x1 = 0.5637	1263	283.7
318.15 K, x1 = 0.6636	1269.1	318.6
318.15 K, x1 = 0.7124	1271.6	333.1
318.15 K, x1 = 0.796	1275.3	362.9
318.15 K, x1 = 0.9017	1279	399.9
318.15 K, x1 = 0.9456	1280.3	–

[3]
Details	excess molar enthalpy [kcal/mol]
x1 = 0.1007	0.157
x1 = 0.1989	0.257
x1 = 0.2954	0.312
x1 = 0.3944	0.332
x1 = 0.4985	0.317
x1 = 0.5757	0.293
x1 = 0.6624	0.245
x1 = 0.8201	0.136
